Patent US20240199534A1 (Mitochondria Emotion, Inc., priority 2021, published 2024)
Like-named read-outs stand apart in the source and are kept apart here.

Legend:
[1] = In vivo pharmacokinetics IV and PO (Table 1A); parameters: species or system mouse; conditions: for Tmax: PO, mouse plasma
MFN2 = biological target: T1, MFN2 (Mus musculus, UniProt Q80U63); experiment: Mitofusin activation (MFN activity), EC50; type: cell-based; conditions: stereoisomeric configurations of Compound 2
T1 sequence (Q80U63 1-757): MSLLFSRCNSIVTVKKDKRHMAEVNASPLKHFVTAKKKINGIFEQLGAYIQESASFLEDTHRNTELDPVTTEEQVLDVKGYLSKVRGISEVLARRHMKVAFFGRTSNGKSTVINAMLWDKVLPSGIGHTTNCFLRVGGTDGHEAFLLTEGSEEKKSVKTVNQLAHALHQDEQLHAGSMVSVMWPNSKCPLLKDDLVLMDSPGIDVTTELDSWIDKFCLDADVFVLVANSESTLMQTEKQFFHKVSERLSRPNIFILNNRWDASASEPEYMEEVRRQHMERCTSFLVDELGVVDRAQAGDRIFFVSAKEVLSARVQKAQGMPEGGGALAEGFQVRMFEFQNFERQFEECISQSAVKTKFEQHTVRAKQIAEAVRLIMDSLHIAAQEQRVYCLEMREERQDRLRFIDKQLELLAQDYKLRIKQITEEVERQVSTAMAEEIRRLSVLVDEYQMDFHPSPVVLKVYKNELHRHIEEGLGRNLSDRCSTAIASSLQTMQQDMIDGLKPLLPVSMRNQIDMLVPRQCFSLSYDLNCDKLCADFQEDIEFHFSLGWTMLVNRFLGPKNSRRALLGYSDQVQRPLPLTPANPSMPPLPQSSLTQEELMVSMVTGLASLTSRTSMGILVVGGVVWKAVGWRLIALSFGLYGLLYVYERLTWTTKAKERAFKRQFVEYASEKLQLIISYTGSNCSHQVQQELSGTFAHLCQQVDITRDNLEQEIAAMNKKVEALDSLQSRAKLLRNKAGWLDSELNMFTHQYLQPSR
Experimental: Mitochondria were then stained with MitoTracker Orange (200 nM; M7510; Invitrogen, Carlsbad, CA, USA). Nuclei were stained with Hoescht (10 μg/ml; Invitrogen, Thermo Fisher Scientific Cat: #H3570). […] Response curves were interpolated using the sigmoidal model using Prism 8 software.
Testing details for the MFN activity and PAMPA assay are provided in U.S. Patent Applications 2020/034566 and 2020/0345669, incorporated herein by reference.

Compound O=C(N[C@H]1CC[C@H](O)CC1)C1CC1CCCc1ccccc1 (mixture of isomers) [Compound 2, N-((1r,4r)-4-hydroxycyclohexyl)-2-(3-phenylpropyl)cyclopropane-1-carboxamide] has a Vd ([1]; male, CD-1, mouse, plasma, iv, 10 mg/kg, read-out: Vdss) of 0.6 L/kg, a bioavailability ([1]; male, CD-1, mouse, plasma, po, 50 mg/kg) of 59% and an MRT ([1]; male, CD-1, mouse, plasma, single 50 mg/kg oral dose, read-out: mean tissue residence time (MRT)) of 215 min. For the same compound, the Tmax ([1]; male, CD-1, 50 mg/kg, read-out: Tmax) was 30 min.
In the case of O=C(CCCCCc1ccccc1)N[C@H]1CC[C@H](O)CC1 [Compound 1, N-(trans-4-hydroxycyclohexyl)-6-phenylhexanamide, reference compound], the “Tmax” value ([1]; 50 mg/kg) is reported as 30 min.
With O=C(N[C@H]1CC[C@H](O)CC1)[C@@H]1C[C@H]1CCCc1ccccc1 [Compound 2A, (1R,2R)-N-((1r,4R)-4-hydroxycyclohexyl)-2-(3-phenylpropyl)cyclopropane-1-carboxamide] the “activity toward promoting mitofusin activation” value (MFN2) was “active toward promoting mitofusin activation”.
